≈ marks a conversion by molar mass, not a printed value.
Legend:
[1] = tested on: LPS-stimulated RAW264.7 cell lines; assay: LPS-induced NO production (Griess) in RAW264.7; assay type: cell-based, murine; conditions: for The production of NO: LPS group 49.86 ± 0.62, control 1.20 ± 0.38; for inhibitory activity against NO production compared with curcumin: 10 μM
Protocol: RAW 264.7 cells were plated in 96-well plates at a density of 1 × 10^4 cells/well and incubated overnight at 37 °C under 5% CO2. […] Dexamethasone (Solarbio, D8040, Beijing, China) was used as the positive control. Then, 24 h later, NO production was determined by measuring the nitrite content using Griess reagents. Fifty microliters of culture supernatants were transferred to 96-well plates and mixed with 50 μL Griess reagent A. After incubation at room temperature for 5 min, the samples were mixed with an equal volume Griess reagent B for another 5 min. The absorbance of each mixture at 540 nm was measured using a microplate reader.

[2] = tested on: H2O2-stimulated PC 12 cell lines; assay: Protection against H2O2-induced oxidative damage (CCK-8); assay type: cell-based, rat; conditions: for Cell viability / viability at 5 µM / viability at 10 µM / viability at 20 µM: H2O2-induced oxidative damage, PC 12, H2O2 group 49.69 ± 1.37, control 100; for Cell viability: in % (unit assumed); for cell survival rate (anti-oxidant): at 10 μM; for cell survival rate (anti-oxidant) / anti-oxidant capacity compared with curcumin: H2O2-stimulated PC 12; for anti-oxidant capacity compared with curcumin: 10 μM; for viability at 5 µM / viability at 10 µM / viability at 20 µM: Rattus norvegicus; for viability at 5 µM: PC-12, Dose 5 μM; for viability at 10 µM: PC-12, Dose 10 μM; for viability at 20 µM: PC-12, Dose 20 μM
Protocol: PC 12 cells were seeded in 96-well plates at a density of 8000 cells/well and incubated overnight. […] After incubating under the same conditions for 24 h, 10 μL CCK-8 solution was added to each well. After 2 h incubation, the absorbance of each well was measured at 450 nm using a microplated reader (Multiskan MK-3, Thermo, Waltham, MA, USA).

PC 12 cell lines = assay: Radiation protection in vitro (CCK-8); assay type: cell-based, rat; conditions: for Cell viability / viability at 5 µM / viability at 10 µM / viability at 20 µM: radiation 8.0 Gy, PC 12, radiation group 50.22 ± 1.08; for Cell viability: in % (unit assumed); for viability at 5 µM / viability at 10 µM / viability at 20 µM: Rattus norvegicus; for viability at 5 µM: PC-12, Dose 5 μM; for viability at 10 µM: PC-12, Dose 10 μM; for viability at 20 µM: PC-12, Dose 20 μM; for radiation protection capacity / radiation protection capability compared with curcumin: 10 μM; for radiation protection capacity: versus radiation group
Protocol: The rat adrenal pheochromocytoma cells (PC 12) were used for in vitro studies. A Cell Counting Kit-8 (CCK-8, Applygen Technologies Co., Ltd., Beijing, China) assay was used to determine cell viability. […] Cells were irradiated with dose of 8.0 Gy at a dose rate of 0.8 Gy/min. Then, 10 μL CCK-8 solution was added to all the wells. After 4 h incubation, the absorbance at 450 nm of each well was measured in a multiscan photometer.

[3] = Aqueous solubility determination by UV spectrophotometer; assay type: physicochemical; conditions: water, thermodynamic from solid, saturated solution concentration
Protocol: A UV spectrophotometer was used to test the aqueous solubility of target compounds. Each compound to be tested was prepared into solutions with concentrations of 0.2 M, 0.1 M, 0.05 M, 0.025 M, 0.0125 M, 0.00625 M, and 0.003125 M. The optical density (OD) values of the prepared solutions were measured using an ultraviolet spectrophotometer, and concentration–OD-value standard curves were drawn for each compound to be tested. The saturated solutions of the target compounds were diluted by 5000 times and detected using an ultraviolet spectrophotometer to measure the OD values, respectively. The measured OD values were substituted into the corresponding concentration-OD value standard curve to calculate the diluted concentrations, which were multiplied by 5000 to obtain the saturated solution concentrations of the target compounds.

[4] = Dose 5 μM, LPS-stimulated RAW264.7
[5] = Dose 10 μM, LPS-stimulated RAW264.7
[6] = Dose 15 μM, LPS-stimulated RAW264.7

solubility [3] | SMILES | The production of NO [1, 4] | The production of NO [1, 5] | The production of NO [1, 6] | Cell viability ([2]; Dose 5 μM) | Cell viability ([2]; Dose 10 μM) | Cell viability ([2]; Dose 20 μM) | Cell viability (PC 12 cell lines; Dose 20 μM) | viability at 5 µM (PC 12 cell lines) | viability at 10 µM (PC 12 cell lines) | inhibitory activity against NO production compared with curcumin [1] | viability at 20 µM (PC 12 cell lines) | radiation protection capacity (PC 12 cell lines) | viability at 5 µM [2] | viability at 10 µM [2] | viability at 20 µM [2] | Cell viability (PC 12 cell lines; Dose 5 μM) | Cell viability (PC 12 cell lines; Dose 10 μM) | further results
314 mg/mL (≈ 760 mM) | COc1cc(/C=C/C(=O)CC(=O)/C=C/c2ccc(O)cc2F)cc(CN(C)C)c1O [Compound 4a] | 31.54 ± 1.30 | 20.51 ± 1.88 | 9.45 ± 1.96 | 67.52 ± 3.31 | 75.00 ± 2.39 | 86.52 ± 5.31 | 97.55 ± 3.44 | 56.4 ± 3.51% | 61.5 ± 3.74% |  |  |  |  |  |  |  |  | 
258 mg/mL (≈ 600 mM) | COc1cc(/C=C/C(=O)CC(=O)/C=C/c2ccc(O)c(Cl)c2)cc(CN(C)C)c1O [Compound 7a] | 35.35 ± 1.59 | 16.83 ± 0.42 | 9.77 ± 0.63 | 54.89 ± 1.04 | 62.07 ± 4.16 | 79.65 ± 3.04 |  | 62.1 ± 1.39% | 65.5 ± 2.03% | better inhibitory activity | 75.7 ± 2.05% |  |  |  |  |  |  | cell survival rate (anti-oxidant) [2]: 62%
335 mg/mL (≈ 848 mM) | COc1cc(/C=C/C(=O)CC(=O)/C=C/c2ccc(O)cc2)cc(CN(C)C)c1O [Compound 10a] | 24.20 ± 1.36 | 7.81 ± 0.85 | 3.91 ± 0.22 |  |  |  | 81.14 ± 3.72 |  |  | better inhibitory activity |  |  | 54.9 ± 1.34% | 64.7 ± 2% | 84 ± 4.36% | 61.98 ± 2.45 | 67.94 ± 4.69 | inhibition at 15 µM ([1]; Mus musculus, at 15 μM, LPS-stimulated RAW264.7, read-out: inhibition rate on NO release): 92%; cell survival rate (anti-oxidant) [2]: 64%
132 mg/mL (≈ 311 mM) | COc1ccc(/C=C/C(=O)CC(=O)/C=C/c2cc(CN(C)C)c(O)c(OC)c2)cc1O [Compound 11a] | 35.82 ± 1.34 | 15.68 ± 3.02 | 4.63 ± 0.40 |  |  |  | 106.32 ± 7.58 |  |  | better inhibitory activity |  | a certain degree of radiation protection capacity | 61.5 ± 1.46% | 73.7 ± 3.89% | 97.3 ± 1.95% | 60.93 ± 1.64 | 64.92 ± 0.58 | cell survival rate (radiation protection) (PC 12 cell lines; at 20 μM, irradiated PC 12): 106%

Continued, molecule first:

SMILES | solubility [3] | The production of NO [1, 4] | The production of NO [1, 5] | The production of NO [1, 6] | Cell viability ([2]; Dose 5 μM) | Cell viability ([2]; Dose 10 μM) | Cell viability ([2]; Dose 20 μM) | Cell viability (PC 12 cell lines; Dose 20 μM) | viability at 5 µM (PC 12 cell lines) | viability at 10 µM (PC 12 cell lines) | inhibitory activity against NO production compared with curcumin [1] | viability at 20 µM (PC 12 cell lines) | radiation protection capacity (PC 12 cell lines) | viability at 5 µM [2] | viability at 10 µM [2] | viability at 20 µM [2] | Cell viability (PC 12 cell lines; Dose 5 μM) | Cell viability (PC 12 cell lines; Dose 10 μM) | further results
COc1cc(/C=C/C(=O)CC(=O)/C=C/c2cc(OC)c(O)c(OC)c2)cc(CN(C)C)c1O [Compound 2a] | 148 mg/mL (≈ 325 mM) | 41.89 ± 1.95 | 38.68 ± 0.96 | 36.24 ± 0.50 | 56.60 ± 0.54 | 61.51 ± 1.77 | 65.65 ± 1.31 | 92.24 ± 6.04 | 57.7 ± 4.12% | 61.6 ± 4.11% |  |  |  |  |  |  |  |  | cell survival rate (anti-oxidant) [2]: 61%
COc1cc(/C=C/C(=O)CC(=O)/C=C/c2ccc(O)cc2C)cc(CN(C)C)c1O [Compound 3a] | 255 mg/mL (≈ 623 mM) | 32.92 ± 2.00 | 16.27 ± 1.74 | 5.29 ± 0.97 | 61.60 ± 3.89 | 72.94 ± 2.65 | 86.90 ± 1.63 |  | 57.1 ± 3.05% | 64.2 ± 0.94% | better inhibitory activity | 69.1 ± 2.51% |  |  |  |  |  |  | 
COc1cc(/C=C/C(=O)CC(=O)/C=C/c2cc(C)c(O)c(C)c2)cc(CN(C)C)c1O [Compound 8a] | 118 mg/mL (≈ 279 mM) | 35.08 ± 2.53 | 16.57 ± 1.70 | 4.61 ± 0.29 | 74.54 ± 1.42 | 81.49 ± 3.47 | 87.62 ± 2.98 |  | 60.3 ± 1.38% | 62.2 ± 0.75% | better inhibitory activity | 81.9 ± 2.94% | a certain degree of radiation protection capacity |  |  |  |  |  | anti-oxidant capacity compared with curcumin [2]: better anti-oxidant capacity
COc1cc(O)ccc1/C=C/C(=O)CC(=O)/C=C/c1cc(CN(C)C)c(O)c(OC)c1 [Compound 9a] | 167 mg/mL (≈ 393 mM) | 36.91 ± 0.59 | 21.33 ± 0.19 | 11.29 ± 0.25 | 63.56 ± 2.88 | 70.76 ± 3.98 | 81.08 ± 2.61 |  | 56.9 ± 1.03% | 60.9 ± 1.55% |  | 70.2 ± 2.99% |  |  |  |  |  |  | 
COc1cc(/C=C/C(=O)CC(=O)/C=C/c2cc(C)c(O)cc2C)cc(CN(C)C)c1O [Compound 12a] | 206 mg/mL (≈ 487 mM) | 18.38 ± 1.63 | 12.76 ± 0.83 | 9.05 ± 0.72 |  |  |  | 77.34 ± 2.18 |  |  | better inhibitory activity |  | a certain degree of radiation protection capacity | 76.3 ± 3.14% | 81.9 ± 2.3% | 88.1 ± 2.09% | 59.04 ± 1.00 | 63.19 ± 1.90 | anti-oxidant capacity compared with curcumin [2]: better anti-oxidant capacity
COc1cc(/C=C/C(=O)CC(=O)/C=C/c2c(C)cc(O)cc2C)cc(CN(C)C)c1O [Compound 13a] | 285 mg/mL (≈ 674 mM) | 17.80 ± 2.19 | 9.09 ± 1.21 | 5.58 ± 0.11 |  |  |  | 88.50 ± 1.18 |  |  | better inhibitory activity |  | a certain degree of radiation protection capacity | 71.5 ± 2.53% | 77.9 ± 3.02% | 90.2 ± 3.77% | 66.55 ± 2.11 | 75.50 ± 1.73 | radiation protection capability compared with curcumin (PC 12 cell lines; irradiated PC 12): better radiation protection capability
COc1cc(/C=C/C(=O)CC(=O)/C=C/c2c(OC)cc(O)cc2OC)cc(CN(C)C)c1O [Compound 14a] | 126 mg/mL (≈ 277 mM) | 29.10 ± 0.37 | 13.47 ± 0.31 | 7.49 ± 0.40 |  |  |  | 77.66 ± 1.75 |  |  | better inhibitory activity |  | a certain degree of radiation protection capacity | 68 ± 3.05% | 77.1 ± 0.64% | 81.9 ± 1.35% | 64.83 ± 0.66 | 68.68 ± 1.31 | radiation protection capability compared with curcumin (PC 12 cell lines; irradiated PC 12): better radiation protection capability

— paper PMC11085442 (Molecules, 2024)
